# Results taken from patent US20100080855A1, “HEDGEHOG SIGNALING AND CANCER STEM CELLS IN HEMATOPOIETIC CELL MALIGNANCIES” (THE BOARD OF TRUSTEES OF THE LELAND STANFORD JUNIOR …, priority 2008, published 2010).
# Tested on: BCR-ABL1 driven leukemia
# Details: leukemias of mice treated with 25 mg/kg cyclopamine vs vehicle; flow cytometry lin-GFP+ c-Kit+Sca-1+
structure (smiles),measurement,value
CC1=C2C[C@H]3[C@@H](CC=C4C[C@@H](O)CC[C@@]43C)[C@@H]2CC[C@]12O[C@@H]1C[C@H](C)CN[C@H]1[C@H]2C [cyclopamine],reduction in the CML stem cell population,up to a fourteen-fold reduction
